# Values quoted from earlier work as cited in US11608532B2, “Precision medicine for treating and preventing suicidality” (Indiana University Research and Technology Corporation, priority 2017, dated 2023).
# Where two headings read alike, the source gives them in different places.
# Experiments:
# [1] = test system: top male bipolar biomarkers for suicidality; details: for Drugs that Modulate the Biomarker in Opposite Direction to Suicide: (I) in suicidality, male bipolars
# [2] = test system: individual top biomarkers for suicidality; details: for TNF modulated by drug in opposite direction to suicide: direction of change in suicidality (I) DE/1, (I) AP/1
# [3] = A. Top Universal Biomarkers, direction of change in suicidality (D), AP/1
# [4] = biomarker HTR2A (5-hydroxytryptamine (serotonin) receptor 2A, G protein-coupled)
# [5] = C. Top Biomarkers in Females, direction of change in suicidality I, DE/2
# [6] = E. Top Biomarkers in Depression, direction of change in suicidality (I), DE/1
# [7] = G. Top Biomarkers in Males with Depression, direction of change in suicidality (D), AP/2
# [8] = A. Top Universal Biomarkers, direction of change in suicidality (I), DE/2
# [9] = D. Top Biomarkers in Bipolar Disorder, direction of change in suicidality (I), DE/2
# [10] = F. Top Biomarkers in Males with Bipolar Disorder, direction of change in suicidality (I), DE/2
# [11] = biomarker BCL2 (B-cell CLL/lymphoma 2)
# [12] = B. Top Biomarkers in Males, direction of change in suicidality I, DE/2
# [13] = D. Top Biomarkers in Bipolar Disorder, direction of change in suicidality (D), DE/1
# [14] = D. Top Biomarkers in Bipolar Disorder
molecule,measurement,setting,value
CCO [Alcohol],Drugs that Modulate the Biomarker in Opposite Direction to Suicide (direction of change by drug),[1],(D) and (I)
O=C1CCc2ccc(OCCCCN3CCN(c4cccc(Cl)c4Cl)CC3)cc2N1 [Aripiprazole],IFNG modulated by drug in opposite direction to suicide,[2]; [3],Aripiprazole
same,Step 6 Drugs that Modulate the Biomarker in Opposite Direction to Suicide,[2]; [4],Aripiprazole
CNCCC(Oc1ccc(C(F)(F)F)cc1)c1ccccc1 (centres unmarked) [Fluoxetine],BDNF modulated by drug in opposite direction to suicide,[2]; [5],Fluoxetine
same,ACP1 modulated by drug in opposite direction to suicide,"[2]; E. Top Biomarkers in Depression, direction of change in suicidality (D), AP/1",Fluoxetine
same,BDNF modulated by drug in opposite direction to suicide,[2]; [6],Fluoxetine
same,JUN modulated by drug in opposite direction to suicide,[2]; [6],Fluoxetine
same,NTRK3 modulated by drug in opposite direction to suicide,[2]; [7],Fluoxetine
COc1cc(C(C)=O)ccc1OCCCN1CCC(c2noc3cc(F)ccc23)CC1 [Iloperidone],HTR2A modulated by drug in opposite direction to suicide,[2]; [8],"Iloperidone,"
same,HTR2A modulated by drug in opposite direction to suicide,[2]; [5],"Iloperidone,"
same,HTR2A modulated by drug in opposite direction to suicide,[2]; [9],"Iloperidone,"
same,HTR2A modulated by drug in opposite direction to suicide,[2]; [10],"Iloperidone,"
C/C=C(/C)C(=O)O[C@H]1C(C)=C[C@]23C(=O)[C@@H](C=C(CO)[C@@H](O)[C@]12O)[C@H]1[C@@H](C[C@H]3C)C1(C)C [Ingenol mebutate],Drugs that modulate the biomarker PRKCB,"[2]; biomarker PRKCB (protein kinase C, beta), Table 20 CFE drug-evidence",Ingenol mebutate
same,Step 6 Drugs that Modulate the Biomarker in Opposite Direction to Suicide,"[2]; biomarker PRKCI (protein kinase C, iota)",Ingenol
CN[C@@H](C)Cc1ccccc1 [Methamphetamine],Drugs that Modulate the Biomarker in Opposite Direction to Suicide,"[1]; CRYAB, 209283_at",Methamphetamine
CC#C[C@]1(O)CC[C@H]2[C@@H]3CCC4=CC(=O)CCC4=C3[C@@H](c3ccc(N(C)C)cc3)C[C@@]21C [Mifepristone],BDNF modulated by drug in opposite direction to suicide,[2]; [5],Mifepristone
same,BDNF modulated by drug in opposite direction to suicide,[2]; [6],Mifepristone
CN1CCN2c3ncccc3Cc3ccccc3C2C1 (centres unmarked) [Mirtazapine],Step 6 Drugs that Modulate the Biomarker in Opposite Direction to Suicide,[2]; [4],Mirtazapine
CCc1nn(CCCN2CCN(c3cccc(Cl)c3)CC2)c(=O)n1CCOc1ccccc1 [Nefazodone],Step 6 Drugs that Modulate the Biomarker in Opposite Direction to Suicide,[2]; [4],Nefazodone
CC(=O)O[C@H]1C(=O)[C@@]2(C)[C@H]([C@H](OC(=O)c3ccccc3)[C@]3(O)C[C@H](OC(=O)[C@H](O)[C@@H](NC(=O)c4ccccc4)c4ccccc4)C(C)=C1C3(C)C)[C@]1(OC(C)=O)CO[C@@H]1C[C@@H]2O [Paclitaxel],Step 6 Drugs that Modulate the Biomarker in Opposite Direction to Suicide,[2]; [11],Paclitaxel
Fc1ccc([C@@H]2CCNC[C@H]2COc2ccc3c(c2)OCO3)cc1 [Paroxetine],CCL28 modulated by drug in opposite direction to suicide,"[2]; A. Top Universal Biomarkers, direction of change in suicidality (D), AP/4",Paroxetine
OCCOCCN1CCN(C2=Nc3ccccc3Sc3ccccc32)CC1 [Quetiapine],IFNG modulated by drug in opposite direction to suicide,[2]; [3],"Quetiapine,"
same,Step 6 Drugs that Modulate the Biomarker in Opposite Direction to Suicide,[2]; [4],Quetiapine
C[C@H]1Oc2c(cccc2N2CCN(CCCc3c[nH]c4ccc(F)cc34)CC2)NC1=O [SLV-314],SLC6A4 modulated by drug in opposite direction to suicide,[2]; [12],SLV-314
same,SLC6A4 modulated by drug in opposite direction to suicide,[2]; [13],SLV-314
CN[C@H]1CC[C@@H](c2ccc(Cl)c(Cl)c2)c2ccccc21 [Sertraline],TNF modulated by drug in opposite direction to suicide,[2]; [14],Sertraline
COc1ccc(C(CN(C)C)C2(O)CCCCC2)cc1 (centres unmarked) [Venlafaxine],TNF modulated by drug in opposite direction to suicide,[2]; [14],Venlafaxine
O=C1Cc2cc(CCN3CCN(c4nsc5ccccc45)CC3)c(Cl)cc2N1 [Ziprasidone],Step 6 Drugs that Modulate the Biomarker in Opposite Direction to Suicide,[2]; [4],Ziprasidone
CN(C)CCC=C1c2ccccc2CCc2ccccc21 [amitriptyline],Drugs that Modulate the Biomarker in Opposite Direction to Suicide,"[1]; HTR2A, 244130_at",amitriptyline
CN1CCc2cccc3c2[C@H]1Cc1ccc(O)c(O)c1-3 [apomorphine],Drugs that Modulate the Biomarker in Opposite Direction to Suicide,"[1]; HTR2A, 244130_at",apomorphine
O=C1CCc2ccc(OCCCCN3CCN(c4cccc(Cl)c4Cl)CC3)cc2N1 [aripiprazole],Drugs that Modulate the Biomarker in Opposite Direction to Suicide,"[1]; HTR2A, 244130_at",aripiprazole
CN1CC2c3ccccc3Oc3ccc(Cl)cc3C2C1 (centres unmarked) [asenapine],HTR2A modulated by drug in opposite direction to suicide,[2]; [8],"asenapine,"
same,HTR2A modulated by drug in opposite direction to suicide,[2]; [5],"asenapine,"
same,HTR2A modulated by drug in opposite direction to suicide,[2]; [9],"asenapine,"
same,HTR2A modulated by drug in opposite direction to suicide,[2]; [10],"asenapine,"
CN1CCC(=C2c3ccccc3CCc3cccnc32)CC1 [azatadine],Drugs that Modulate the Biomarker in Opposite Direction to Suicide,"[1]; HTR2A, 244130_at",azatadine
Cc1ccc(C23CNCC2C3)cc1 (centres unmarked) [bicifadine],SLC6A4 modulated by drug in opposite direction to suicide,[2]; [12],"bicifadine,"
same,SLC6A4 modulated by drug in opposite direction to suicide,[2]; [13],"bicifadine,"
CN(C)C(=O)N[C@H]1CC[C@H](CCN2CCN(c3cccc(Cl)c3Cl)CC2)CC1 [cariprazine],HTR2A modulated by drug in opposite direction to suicide,[2]; [8],"cariprazine,"
same,HTR2A modulated by drug in opposite direction to suicide,[2]; [5],"cariprazine,"
same,HTR2A modulated by drug in opposite direction to suicide,[2]; [9],"cariprazine,"
same,HTR2A modulated by drug in opposite direction to suicide,[2]; [10],"cariprazine,"
CN(C)CCCN1c2ccccc2CCc2ccc(Cl)cc21 [clomipramine],Drugs that Modulate the Biomarker in Opposite Direction to Suicide,"[1]; HTR2A, 244130_at",clomipramine
CNCCCN1c2ccccc2CCc2ccccc21 [desipramine],Drugs that Modulate the Biomarker in Opposite Direction to Suicide,"[1]; HTR2A, 244130_at",desipramine
CN1C[C@H](C(=O)N[C@]2(C)O[C@@]3(O)[C@@H]4CCCN4C(=O)[C@H](Cc4ccccc4)N3C2=O)C[C@@H]2c3cccc4[nH]cc(c34)C[C@H]21 [dihydroergotamine],Drugs that Modulate the Biomarker in Opposite Direction to Suicide,"[1]; HTR2A, 244130_at",dihydroergotamine
CN(C)CCC=C1c2ccccc2COc2ccccc21 [doxepin],Drugs that Modulate the Biomarker in Opposite Direction to Suicide,"[1]; HTR2A, 244130_at",doxepin
CN1CCN(c2ccc(C(=O)Nc3n[nH]c4ccc(Cc5cc(F)cc(F)c5)cc34)c(NC3CCOCC3)c2)CC1 [entrectinib],NTRK3 modulated by drug in opposite direction to suicide,[2]; [5],"entrectinib,"
same,NTRK3 modulated by drug in opposite direction to suicide,"[2]; E. Top Biomarkers in Depression, direction of change in suicidality (I) AP/2, (I) DE/1","entrectinib,"
same,NTRK3 modulated by drug in opposite direction to suicide,[2]; [7],"entrectinib,"
CN1C[C@H](C(=O)N[C@]2(C)O[C@@]3(O)[C@@H]4CCCN4C(=O)[C@H](Cc4ccccc4)N3C2=O)C=C2c3cccc4[nH]cc(c34)C[C@H]21 [ergotamine],Drugs that Modulate the Biomarker in Opposite Direction to Suicide,"[1]; HTR2A, 244130_at",ergotamine
"O=C(CCCN1CCC(O)(c2ccc(Cl)cc2)CC1)c1ccc(F)cc1 [haloperidol, reference compound]",BDNF modulated by drug in opposite direction to suicide,[2]; [5],Haloperidol
same,BDNF modulated by drug in opposite direction to suicide,[2]; [6],Haloperidol
same,Drugs that modulate the biomarker AGA,"[2]; biomarker AGA (aspartyl glucosaminidase), Table 20 CFE drug-evidence",Haloperidol
same,Step 6 Drugs that Modulate the Biomarker in Opposite Direction to Suicide,[2]; biomarker AGA (aspartylglucosaminidase),Haloperidol
same,Step 6 Drugs that Modulate the Biomarker in Opposite Direction to Suicide,[2]; biomarker AKAP13 (A kinase (PRKA) anchor protein 13),Haloperidol
same,Drugs that modulate the biomarker RIMS3,"[2]; biomarker RIMS3 (regulating synaptic membrane exocytosis 3), Table 20 CFE drug-evidence",Haloperidol
CCN(CC)C(=O)N[C@H]1C=C2c3cccc4[nH]cc(c34)C[C@H]2N(C)C1 [lisuride],Drugs that Modulate the Biomarker in Opposite Direction to Suicide,"[1]; HTR2A, 244130_at",lisuride
CN1CCCCC1CCN1c2ccccc2Sc2ccc([S+](C)[O-])cc21 (centres unmarked) [mesoridazine],Drugs that Modulate the Biomarker in Opposite Direction to Suicide,"[1]; HTR2A, 244130_at",mesoridazine
CC[C@@H](CO)NC(=O)[C@@H]1C=C2c3cccc4c3c(cn4C)C[C@H]2N(C)C1 [methysergide],Drugs that Modulate the Biomarker in Opposite Direction to Suicide,"[1]; HTR2A, 244130_at",methysergide
CCc1nn(CCCN2CCN(c3cccc(Cl)c3)CC2)c(=O)n1CCOc1ccccc1 [nefazodone],Drugs that Modulate the Biomarker in Opposite Direction to Suicide,"[1]; HTR2A, 244130_at",nefazodone
OCCN1CCN(CCCN2c3ccccc3C=Cc3ccccc32)CC1 [opipramol],HTR2A modulated by drug in opposite direction to suicide,[2]; [8],"opipramol,"
same,HTR2A modulated by drug in opposite direction to suicide,[2]; [5],"opipramol,"
same,HTR2A modulated by drug in opposite direction to suicide,[2]; [9],"opipramol,"
same,HTR2A modulated by drug in opposite direction to suicide,[2]; [10],"opipramol,"
OCCOCCN1CCN(C2=Nc3ccccc3Sc3ccccc32)CC1 [quetiapine],Drugs that Modulate the Biomarker in Opposite Direction to Suicide,"[1]; HTR2A, 244130_at",quetiapine
O=C1NCCN1CCN1CCC(c2cn(-c3ccc(F)cc3)c3ccc(Cl)cc23)CC1 [sertindole],Drugs that Modulate the Biomarker in Opposite Direction to Suicide,"[1]; HTR2A, 244130_at",sertindole
O=C1CCC(N2C(=O)c3ccccc3C2=O)C(=O)N1 (centres unmarked) [thalidomide],TNF modulated by drug in opposite direction to suicide,[2]; [14],thalidomide
CN1CCN(CCCN2c3ccccc3Sc3ccc(S(=O)(=O)N(C)C)cc32)CC1 [thioproperazine],HTR2A modulated by drug in opposite direction to suicide,[2]; [8],"thioproperazine,"
same,HTR2A modulated by drug in opposite direction to suicide,[2]; [5],"thioproperazine,"
same,HTR2A modulated by drug in opposite direction to suicide,[2]; [9],"thioproperazine,"
same,HTR2A modulated by drug in opposite direction to suicide,[2]; [10],"thioproperazine,"
CSc1ccc2c(c1)N(CCC1CCCCN1C)c1ccccc1S2 (centres unmarked) [thioridazine],Drugs that Modulate the Biomarker in Opposite Direction to Suicide,"[1]; HTR2A, 244130_at",thioridazine
O=C1Cc2cc(CCN3CCN(c4nsc5ccccc45)CC3)c(Cl)cc2N1 [ziprasidone],Drugs that Modulate the Biomarker in Opposite Direction to Suicide,"[1]; HTR2A, 244130_at",ziprasidone
Oblimersen,Step 6 Drugs that Modulate the Biomarker in Opposite Direction to Suicide,[2]; [11],Oblimersen
Recombinant-methionyl human leptin,Step 6 Drugs that Modulate the Biomarker in Opposite Direction to Suicide,[2]; biomarker LEPR (leptin receptor),Recombinant-
Tocilizumab,Step 6 Drugs that Modulate the Biomarker in Opposite Direction to Suicide,[2]; biomarker IL6 (interleukin 6),Tocilizumab
etanercept,TNF modulated by drug in opposite direction to suicide,[2]; [14],", etanercept,"
golimumab,TNF modulated by drug in opposite direction to suicide,[2]; [14],"golimumab,"
infliximab,TNF modulated by drug in opposite direction to suicide,[2]; [14],"infliximab,"
tocilizumab,IL6 modulated by drug in opposite direction to suicide,"[2]; B. Top Biomarkers in Males, direction of change in suicidality I, AP/2","tocilizumab,"
